27 compounds from patent US8592383B2, “Cycloalkyl-fused tetrahydroquinolines as CRTH2 receptor modulators” (Merck Sharp & Dohme Corp., priority 2011, dated 2013) can be followed below.

For this assay, the target named is T1, hCRTH2 (Homo sapiens, UniProt Q9Y5Y4).
T1 sequence (Q9Y5Y4 1-395): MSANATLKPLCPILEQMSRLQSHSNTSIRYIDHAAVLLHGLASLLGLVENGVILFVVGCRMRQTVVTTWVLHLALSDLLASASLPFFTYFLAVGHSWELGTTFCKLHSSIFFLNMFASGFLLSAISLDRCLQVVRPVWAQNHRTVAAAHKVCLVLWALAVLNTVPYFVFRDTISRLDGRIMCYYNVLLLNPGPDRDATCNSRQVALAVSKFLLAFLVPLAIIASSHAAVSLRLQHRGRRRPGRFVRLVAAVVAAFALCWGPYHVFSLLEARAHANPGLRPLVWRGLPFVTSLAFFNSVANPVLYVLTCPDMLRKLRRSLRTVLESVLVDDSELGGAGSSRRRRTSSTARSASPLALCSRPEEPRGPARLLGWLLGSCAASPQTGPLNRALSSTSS
The arrangement: expressed in transfected cells; host or cells: HEK (human embryonic kidney) cells expressing hCRTH2. To be noted: Radioligand Binding Assay B. The procedure: The filters were then washed with 4 mL of the same buffer and residual radioligand bound to the filter was determined by liquid scintillation counting following equilibration in 25 μl Ultima Gold F™ (Unifilter) (Packard).

Where [1] appears, read: 0.7 nM [3H]PGD2, HEK-hCRTH2 membranes.

Like-named read-outs stand apart in the source and are kept apart here.

One may read the Ki as a measure of affinity in units of concentration, obtained from inhibition or displacement. A high value points to weaker binding. In the case of “4-{cyclopropyl[cis,cis-6-fluoro-4- (phenylcarbonyl)-2,3,3a,4,9,9a- hexahydro-1H- cyclopenta[b]quinolin-9-yl]amino}- 4-oxobutanoic acid [16D]”, the Ki (Table B, rated A-D) is 20.1 to 200 nM.

As for `COC(=O)CCC(=O)N(c1ccccc1)C1c2ccccc2N(C(=O)c2cccnc2)C2CCCC21` (racemic) [12B, methyl 4-oxo-4-{phenyl[cis, cis-4-(pyridin-3-ylcarbonyl)-2,3,3a,4,9,9a-hexahydro-1H-cyclopenta[b]quinolin-9-yl]amino}butanoate], the Ki (Table B, rated A-D) was in the range of 20.1 to 200 nM.

As to `O=C(O)CCC(=O)N(c1ccccc1)C1c2ccccc2N(C(=O)OCc2ccccc2)C2CCCC21` (racemic) [12C, 4-[{cis,cis-4-[(benzyloxy)carbonyl]-2,3,3a,4,9,9a-hexahydro-1H-cyclopenta[b]quinolin-9-yl}(phenyl)amino]-4-oxobutanoic acid], the Ki (Table B, rated A-D) lay in the range of 5.1 to 20 nM.

`O=C(O)CCC(=O)N(c1ccccc1)C1c2ccccc2N(C(=O)c2cccnc2)C2CCCC21` (racemic) [12D, 4-oxo-4-{phenyl[cis,cis-4-(pyridin-3-ylcarbonyl)-2,3,3a,4,9,9a-hexahydro-1H-cyclopenta[b]quinolin-9-yl]amino}butanoic acid] registered a Ki (Table B, rated A-D) of 5.1 to 20 nM.

Compound `O=C(O)CCC(=O)N(c1ccccc1)C1c2ccccc2N(C(=O)c2ccccc2)C2CCCC21` (racemic) [12E, 4-oxo-4-{phenyl[cis,cis-4-(phenylcarbonyl)-2,3,3a,4,9,9a-hexahydro-1H-cyclopenta[b]quinolin-9-yl]amino}butanoic acid] showed a Ki (Table B, rated A-D) of 5.1 to 20 nM.

As for `CCN(C(=O)CCC(=O)O)C1c2ccccc2N(C(=O)c2ccc(OC(F)(F)F)cc2)C2CCCC12` (racemic) [13C, 4-{ethyl [cis,cis-4-{[4-(trifluoromethoxy)phenyl]carbonyl}-2,3,3a,4,9,9a-hexahydro-1H-cyclopenta[b]quinolin-9-yl]amino}-4-oxobutanoic acid], the Ki (Table B, rated A-D) is 5.1 to 20 nM.

Compound `CCN(C(=O)CCC(=O)O)C1c2ccccc2N(C(=O)c2ccccc2)C2CCCC12` (racemic) [13D, 4-{ethyl[cis,cis-4-(phenylcarbonyl)-2,3,3a,4,9,9a-hexahydro-1H-cyclopenta[b]quinolin-9-yl]amino}-4-oxobutanoic acid] displayed a Ki (Table B, rated A-D) of 5.1 to 20 nM.

`CCN(C(=O)CCC(=O)O)C1c2ccccc2N(C(=O)c2cccnc2)C2CCCC12` (racemic) [13E, 4-{ethyl[cis,cis-4-(pyridin-3-ylcarbonyl)-2,3,3a,4,9,9a-hexahydro-1H-cyclopenta[b]quinolin-9-yl]amino}-4-oxobutanoic acid]: the Ki reads like this: under setting [1], 123 nM; (Table B, rated A-D) 20.1 to 200 nM.

In the case of `O=C(O)CCC(=O)N(C1CC1)C1c2ccccc2N(C(=O)c2ccc(OC(F)(F)F)cc2)C2CCCC21` (racemic) [14C, 4-{cyclopropyl[cis,cis-4-{[4-(trifluoromethoxy)phenyl]carbon-yl}-2,3,3a,4,9,9a-hexahydro-1H-cyclopenta[b]quinolin-9-yl]amino}-4-oxobutanoic acid], under “Table B, rated A-D”, the Ki was 5.1 to 20 nM.

In turn, `Cn1c(C(=O)N2c3ccccc3C(N(C(=O)CCC(=O)O)C3CC3)C3CCCC32)cc2ccccc21` (racemic) [14D, 4-(cyclopropyl{cis,cis-4-[(1-methyl-1H-indol-2-yl)carbonyl]-2,3,3a,4,9,9a-hexahydro-1H-cyclopenta[b]quinolin-9-yl}amino)-4-oxobutanoic acid] came in with a Ki (Table B, rated A-D) of 5.1 to 20 nM.

As for `O=C(O)CCC(=O)N(C1CC1)C1c2ccccc2N(C(=O)c2ccsc2)C2CCCC21` (racemic) [14E, 4-{cyclopropyl[cis,cis-4-(thiophen-3-ylcarbonyl)-2,3,3a,4,9,9a-hexahydro-1H-cyclopenta[b]quinolin-9-yl]amino}-4-oxobutanoic acid], the Ki was 9.9 nM under setting [1] and 5.1 to 20 nM (Table B, rated A-D).

The compound `O=C(O)CCC(=O)N(C1CC1)C1c2ccccc2N(C(=O)c2ccc(Br)cc2)C2CCCC21` (racemic) [14F, 4-[{cis,cis-4-[(4-bromophenyl)carbonyl]-2,3,3a,4,9,9a-hexahydro-1H-cyclopenta[b]quinolin-9-yl}(cyclopropyl)amino]-4-oxobutanoic acid] registered a Ki (Table B, rated A-D) of 5.1 to 20 nM.

On to `O=C(O)CCC(=O)N(C1CC1)C1c2ccccc2N(C(=O)C2CC2)C2CCCC21` (racemic) [14G, 4-{cyclopropyl[cis,cis-4-(cyclopropylcarbonyl)-2,3,3a,4,9,9a-hexahydro-1H-cyclopenta[b]quinolin-9-yl]amino}-4-oxobutanoic acid], for which the Ki (Table B, rated A-D) was in the range of 20.1 to 200 nM.

The compound `O=C(O)CCC(=O)N(C1CC1)C1c2ccccc2N(C(=O)c2cccc(N3CCOCC3)c2)C2CCCC21` (racemic) [14H, 4-(cyclopropyl{cis,cis-4-[(3-morpholin-4-ylphenyl)carbonyl]-2,3,3a,4,9,9a-hexahydro-1H-cyclopenta[b]quinolin-9-yl}amino)-4-oxobutanoic acid] yielded a Ki (Table B, rated A-D) of 20.1 to 200 nM.

For `O=C(O)CCC(=O)N(C1CC1)C1c2ccccc2N(C(=O)c2ccc(Cl)cc2)C2CCCC21` (racemic) [14K, 4-[{cis,cis-4-[(4-chlorophenyl)carbonyl]-2,3,3a,4,9,9a-hexahydro-1H-cyclopenta[b]quinolin-9-yl}(cyclopropyl)amino]-4-oxobutanoic acid], the Ki reads like this: under setting [1], 18.4 nM; (Table B, rated A-D) 5.1 to 20 nM.

`COc1ccc(C(=O)N2c3ccccc3C(N(C(=O)CCC(=O)O)C3CC3)C3CCCC32)cc1` (racemic) [14L, 4-(cyclopropyl{cis,cis-4-[(4-methoxyphenyl)carbonyl]-2,3,3a,4,9,9a-hexahydro-1H-cyclopenta[b]quinolin-9-yl}amino)-4-oxobutanoic acid] returned a Ki (Table B, rated A-D) of 20.1 to 200 nM.

On to `COC(=O)CCC(=O)N(C1CC1)C1c2ccccc2N(C(=O)c2cc3ccccc3n2C)C2CCCC21` (racemic) [14N, methyl 4-(cyclopropyl{cis,cis-4-[(1-methyl-1H-indol-2-yl)carbonyl]-2,3,3a,4,9,9a-hexahydro-1H-cyclopenta[b]quinolin-9-yl}amino)-4-oxobutanoate], for which the Ki (Table B, rated A-D) lay in the range of 201 to 7500 nM.

`COC(=O)CCC(=O)N(C1CC1)C1c2ccccc2N(C(=O)c2ccc(Cl)cc2)C2CCCC21` (racemic) [14P, methyl 4-[{cis,cis-4-[(4-chlorophenyl)carbonyl]-2,3,3a,4,9,9a-hexahydro-1H-cyclopenta[b]quinolin-9-yl}(cyclopropyl)amino]-4-oxobutanoate] gave a Ki under setting [1] of 414 nM and a Ki (Table B, rated A-D) of 201 to 7500 nM.

In the case of `O=C(O)CCC(=O)N(C1CC1)C1c2ccccc2N(C(=O)c2cccnc2)C2CCCC21` (racemic) [14i, 4-{cyclopropyl[cis,cis-4-(pyridin-3-ylcarbonyl)-2,3,3a,4,9,9a-hexahydro-1H-cyclopenta[b]quinolin-9-yl]amino}-4-oxobutanoic acid], the Ki (Table B, rated A-D) lay within 20.1 to 200 nM.

Under “Table B, rated A-D”, `COC(=O)CCC(=O)N(C1CC1)C1c2ccccc2N(C(=O)c2ccsc2)C2CCCC21` (racemic) [14o, methyl 4-{cyclopropyl[cis,cis-4-(thiophen-3-ylcarbonyl)-2,3,3a,4,9,9a-hexahydro-1H-cyclopenta[b]quinolin-9-yl]amino}-4-oxobutanoate] gave a Ki of 201 to 7500 nM.

In turn, `COC(=O)CCC(=O)N(C1CC1)C1c2ccc(F)cc2N(C(=O)c2cccnc2)C2CCCC21` (racemic) [16A, Methyl 4-{cyclopropyl[cis,cis-6-fluoro-4-(pyridin-3-ylcarbonyl)-2,3,3a,4,9,9a-hexahydro-1H-cyclopenta[b]quinolin-9-yl]amino}-4-oxobutanoate] showed a Ki (Table B, rated A-D) of 201 to 7500 nM.

`COC(=O)CCC(=O)N(C1CC1)C1c2ccc(F)cc2N(C(=O)c2ccc(Oc3ccccc3)cc2)C2CCCC21` (racemic) [16B, Methyl 4-{cyclopropyl[cis,cis-6-fluoro-4-[(4-phenoxyphenyl)carbonyl]-2,3,3a,4,9,9a-hexahydro-1H-cyclopenta[b]quinolin-9-yl}amino)-4-oxobutanoate] returned a Ki (Table B, rated A-D) of 5.1 to 20 nM.

As to `COC(=O)CCC(=O)N(C1CC1)C1c2ccc(F)cc2N(C(=O)c2ccccc2)C2CCCC21` (racemic) [16C, Methyl 4-{cyclopropyl[cis,cis-6-fluoro-4-(phenylcarbonyl)-2,3,3a,4,9,9a-hexahydro-1H-cyclopenta[b]quinolin-9-yl]amino}-4-oxobutanoate], the Ki is 140 nM under setting [1] and 20.1 to 200 nM (Table B, rated A-D).

With `O=C(O)CCC(=O)N(C1CC1)C1c2ccc(F)cc2N(C(=O)c2ccc(Oc3ccccc3)cc2)C2CCCC21` (racemic) [16E, 4-{cyclopropyl[cis,cis-6-fluoro-4-[(4-phenoxyphenyl)carbonyl]-2,3,3a,4,9,9a-hexahydro-1H-cyclopenta[b]quinolin-9-yl}amino)-4-oxobutanoic acid], the inhibition constant Ki (Table B, rated A-D) lay within 1 to 5 nM.

`O=C(O)/C=C/C(=O)N(CC1CC1)C1c2ccccc2N(C(=O)c2ccccc2)C2CCCC12` (racemic) [17H, (2E)-4-[[cis,cis-4-benzoyl-2,3,3a,4,9,9a-hexahydro-1H-cyclopenta[b]quinolin-9-yl](cyclopropylmethyl)amino]-4-oxo-2-butenoic acid] came in with a Ki (Table B, rated A-D) of 201 to 7500 nM.

In the case of `CN(C(=O)CCCC(=O)O)C1c2ccccc2N(C(=O)c2ccccc2)C2CCCC12` (racemic) [17N], the Ki (Table B, rated A-D) is 201 to 7500 nM.

`CN(C(=O)/C=C/C(=O)O)C1c2ccccc2N(C(=O)c2ccccc2)C2CCCC12` (racemic) [17P, (2E)-4-[[cis,cis-4-benzoyl-2,3,3a,4,9,9a-hexahydro-1H-cyclopenta[b]quinolin-9-yl]methylamino]-4-oxo-2-butenoic acid] had a Ki (Table B, rated A-D) of 201 to 7500 nM.
